Some test systems named below: DLD-1 colon; DMS 114 small cell lung; DMS 273 small cell lung; HCC-2998 colon; HOP-18 NSCLC; K-562 leukemia; KM20L2 colon; M19-MEL melanoma; NCI-H460 lung; SNB-78 CNS; XF 498 CNS; LXFL 529 NSCLC; RPMI-8226 leukemia.
Test in all cases: NCI tumour cell line growth inhibition, 48 h

Where “and” joins values, the source holds several entries; their conditions need not be identical. Equal entries are not always repeated.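 All cell lines were grown in 96-well plates and treated with compound for 48 hours. GI50 = concentration required for 50% inhibition of growth. TGI denotes the concentration required for complete inhibition of growth.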 Bounds are passed on as bounds.

Consider `Clc1ccc(C[P+](c2ccccc2)(c2ccccc2)c2ccccc2)cc1Cl`, for which the TGI is 21.5 µM in the test on DLD-1 colon; 5.95 µM with DMS 114 small cell lung; 7.58 µM in the test on DMS 273 small cell lung; 11.2 µM in the test on HCC-2998 colon; 11 µM in the test with HOP-18 NSCLC; > 100 µM in the test with K-562 leukemia. Moreover, the TGI turned out to be 13.7 µM in the test on KM20L2 colon; 5.32 µM with M19-MEL melanoma; 12.8 µM with NCI-H460 lung; 42.8 µM in the test with SNB-78 CNS; 3.24 µM in the test on XF 498 CNS.
In the case of `C/C(N=NS(=O)(=O)c1ccc([N+](=O)[O-])cc1)=C1\C=CC=CN1O`, the TGI with DLD-1 colon, with DMS 114 small cell lung, in the test with DMS 273 small cell lung, in the test on HCC-2998 colon, in the test with HOP-18 NSCLC and with K-562 leukemia was > 100 µM in each case. The TGI in the test on KM20L2 colon, with LXFL 529 NSCLC, with M19-MEL melanoma, in the test with NCI-H460 lung, with RPMI-8226 leukemia and in the test with SNB-78 CNS was > 100 µM throughout. In addition, the TGI with XF 498 CNS is > 100 µM.
Take `CCn1c2ccccc2c2c(-c3ccccc3)cc3c(c21)C(=O)N(c1ccccc1)C3=O`: the TGI with DLD-1 colon, in the test on DMS 114 small cell lung, in the test with DMS 273 small cell lung, in the test with HCC-2998 colon, in the test with K-562 leukemia and with KM20L2 colon was > 100 µM in each case. Moreover, the TGI in the test with LXFL 529 NSCLC, in the test on M19-MEL melanoma, in the test on NCI-H460 lung, with SNB-78 CNS and in the test with XF 498 CNS was > 100 µM each time.
`COc1ccc(NCC(=O)Nn2c(-c3ccccc3)nc3ccccc3c2=O)cc1`: the TGI in the test on HCC-2998 colon, in the test on K-562 leukemia, with NCI-H460 lung and in the test on RPMI-8226 leukemia was > 100 µM in each case.
In the case of `NC(Cc1ccc2nc3c4ccccc4c(=O)cc-3oc2c1)C(=O)O` (stereo unspecified), the TGI with HCC-2998 colon, with K-562 leukemia, in the test with NCI-H460 lung and in the test on RPMI-8226 leukemia was > 100 µM in each case.
For `CC(=O)OCC1OC(n2c(Br)nc3c2c(=O)n(C)c(=O)n3C)C(OC(C)=O)C1OC(C)=O` (stereo unspecified), the TGI in the test on HCC-2998 colon was > 100 µM; in the test on K-562 leukemia it was > 100 µM; in the test with NCI-H460 lung, > 100 µM; with RPMI-8226 leukemia, 95.6 µM.
On to `Cc1nc2sc(C(=O)c3ccc(Cl)cc3)c(N)c2c(-c2ccccc2Cl)c1C(=O)Nc1ccccc1`, for which the TGI in the test on HCC-2998 colon is 59.9 µM; in the test with K-562 leukemia, > 51.8 µM; in the test on NCI-H460 lung it was 28.8 µM; in the test on RPMI-8226 leukemia, 62.2 µM.
As to `Cc1nc2cc(Nc3ccccc3C(=O)O)ccc2s1`, the TGI with DLD-1 colon, with DMS 114 small cell lung, with DMS 273 small cell lung, in the test with HCC-2998 colon, with HOP-18 NSCLC and with K-562 leukemia was > 100 µM throughout. Moreover, the TGI in the test on KM20L2 colon, in the test with LXFL 529 NSCLC, in the test with M19-MEL melanoma, in the test with NCI-H460 lung and with RPMI-8226 leukemia was > 100 µM each time.
As for `CCn1c(CCl)nc2c1C(=O)c1ccccc1C2=O`, the TGI with HCC-2998 colon is 2.9 µM; in the test on K-562 leukemia, > 100 µM; with NCI-H460 lung, 3.9 µM; with RPMI-8226 leukemia it was > 100 µM.
Regarding `COC1(CC[C@@H](C)COC2OC(CO)C(O)C(O)C2O)O[C@H]2C[C@H]3[C@@H]4CC=C5C[C@@H](OC6OC(CO)C(O)C(OC7OC(CO)C(O)C(O)C7O)C6OC6OC(C)C(O)C(O)C6O)CC[C@]5(C)[C@H]4CC[C@]3(C)[C@H]2[C@@H]1C` (stereo partly specified), the TGI with HCC-2998 colon is 10.6 µM; with K-562 leukemia it was > 62.8 µM; in the test with NCI-H460 lung, 14.8 µM; in the test on RPMI-8226 leukemia, > 88.3 µM.
With `C[C@H](CCC1SC1(C)C)C1CCC2(C)C3=C(CC[C@]12C)[C@@]1(C)CC[C@H](O)C(C)(C)C1CC3` (stereo partly specified), the TGI with DLD-1 colon, with DMS 114 small cell lung, in the test on DMS 273 small cell lung, in the test on HCC-2998 colon, in the test on HOP-18 NSCLC and with K-562 leukemia was > 100 µM throughout. In addition, the TGI with KM20L2 colon, with LXFL 529 NSCLC, with NCI-H460 lung, in the test on RPMI-8226 leukemia and in the test with XF 498 CNS was > 100 µM in each case.
In the case of `C#CCN(Cc1ccc2nc(-c3ccccc3)c(N)nc2c1)c1cc(OC)c(OC)c(OC)c1`, the TGI with DMS 114 small cell lung was 37.7 µM; in the test on DMS 273 small cell lung it was 42.8 µM; in the test with HCC-2998 colon, > 100 µM; with K-562 leukemia it was > 100 µM; in the test with KM20L2 colon it was > 100 µM; in the test with LXFL 529 NSCLC, 91.2 µM. In addition, the TGI with M19-MEL melanoma was > 100 µM; in the test with NCI-H460 lung it was 81.1 µM; with RPMI-8226 leukemia, 32.3 µM; with SNB-78 CNS, 78.9 µM; with XF 498 CNS, 59.5 µM.
Regarding `CC1(C)COC2=C(C1)C(=O)c1ccccc1C2=O`, the TGI with HCC-2998 colon stood at 3.08 µM; in the test with K-562 leukemia, 1.52 µM; in the test with NCI-H460 lung it was 3.64 µM; with RPMI-8226 leukemia, 4.45 µM.
As for `C(#CP(c1ccccc1)c1ccccc1)P(C#CP(c1ccccc1)c1ccccc1)c1ccccc1`, the TGI with HCC-2998 colon, with K-562 leukemia, in the test on NCI-H460 lung and in the test with RPMI-8226 leukemia was > 100 µM in each case.
Consider `O=C(SCc1cccc2ccccc12)c1ccc(Cl)cc1`, for which the TGI in the test with HCC-2998 colon, in the test on K-562 leukemia, in the test on NCI-H460 lung and in the test with RPMI-8226 leukemia was > 100 µM in each case.
For `O=C1CSC(c2ccc(Cl)cc2Cl)N1c1ccc(Oc2ccc(Cl)cc2)c(Cl)c1` (stereo unspecified), the TGI in the test with HCC-2998 colon was > 100 µM; in the test on K-562 leukemia it was > 100 µM; in the test on NCI-H460 lung it was 84.4 µM; with RPMI-8226 leukemia, 68.3 µM.
As to `Nc1nc(Cl)c(Cl)c(NCC2(O)CCC2)n1`, the TGI in the test on HCC-2998 colon, in the test with K-562 leukemia, in the test on NCI-H460 lung and with RPMI-8226 leukemia was > 100 µM throughout.
Regarding `C/C(=N\O)c1cccc[n+]1Cc1ccccc1`, the TGI in the test on HCC-2998 colon, with K-562 leukemia, in the test on NCI-H460 lung and in the test on RPMI-8226 leukemia was > 100 µM each time.
Regarding `O=C(Nc1ccc(S(=O)(=O)/N=c2\ncccn2C(=O)C(C(F)(F)F)C(F)(F)F)cc1)C(C(F)(F)F)C(F)(F)F`, the TGI with HCC-2998 colon, with K-562 leukemia, in the test with NCI-H460 lung and with RPMI-8226 leukemia was > 100 µM throughout.
On to `C(=Nc1ccc(-c2nc3ccccc3s2)cc1)c1ccc[nH]1`, for which the TGI came to 31.9 µM in the test on HCC-2998 colon, 66.6 µM with K-562 leukemia, 38.1 µM in the test on NCI-H460 lung and 55.9 µM with RPMI-8226 leukemia.
As to `COc1ccccc1C1(c2c(OC)c(=O)c2=O)SCCCS1`, the TGI in the test on HCC-2998 colon, in the test with K-562 leukemia, in the test with NCI-H460 lung and with RPMI-8226 leukemia was > 100 µM throughout.
For `O=C(NO)NCCCl`, the TGI with HCC-2998 colon, with K-562 leukemia, with NCI-H460 lung and with RPMI-8226 leukemia was > 100 µM each time.
In the case of `COc1cc(OC)c2c(c1)OC(c1cccnc1)C(c1ccccc1)C2=O` (stereo unspecified), the TGI in the test with HCC-2998 colon, in the test on K-562 leukemia, in the test with NCI-H460 lung and in the test with RPMI-8226 leukemia was > 100 µM throughout.
Turning to `COC(=O)C1OC(O[C@H]2CC[C@]3(C)[C@H]4CC=C5[C@@H]6CC(C)(C)CC[C@]6(C(=O)OC6OCC(O)C(O)C6OC6OC(C)C(OC7OCC(O)C(O)C7O)C(OC7OCC(O)(CO)C7O)C6O)[C@H](O)C[C@@]5(C)[C@]4(C)CC[C@H]3C2(C)C)C(O)C(O)C1O` (stereo partly specified), the TGI with HCC-2998 colon is 3.79 µM; with K-562 leukemia it was > 100 µM; in the test on NCI-H460 lung it was 34.3 µM; with RPMI-8226 leukemia, > 31.1 µM.
Turning to `CN(C)c1ccc(/C=C/c2sc3ccccc3[n+]2C)cc1`, the GI50 in the test on HCC-2998 colon was 11.2 µM and 1.48 µM; in the test with K-562 leukemia, 0.515 µM and 0.856 µM; in the test on NCI-H460 lung, 1.88 µM and 0.744 µM; in the test on RPMI-8226 leukemia it was 0.355 µM. The TGI in the test on HCC-2998 colon was 25.7 µM and 17.3 µM; in the test with K-562 leukemia, 4.26 µM and 26.2 µM; in the test on NCI-H460 lung it was 5.28 µM and 7.85 µM; with RPMI-8226 leukemia, 0.719 µM and 4.19 µM.
Consider `Cn1cc(S(=O)(=O)NC(=O)Nc2ccc(Cl)cc2)c(=O)c2ccc(F)cc21`, for which the TGI with HCC-2998 colon, with K-562 leukemia, with NCI-H460 lung and with RPMI-8226 leukemia was > 100 µM in each case.
For the compound `Cc1cccc(CC(Cc2ccc(C)cc2C(=O)O)C(=O)O)c1` (stereo unspecified), the TGI with HCC-2998 colon, in the test on K-562 leukemia, with NCI-H460 lung and in the test with RPMI-8226 leukemia was > 100 µM throughout.
